In assay [1] the test system is DIO mice. The assay can be described thus: Anti-obesity effect for DIO mice (body weight). The format is in vivo, C57BL/6 mice. Conditions: Mus musculus, 672 h, 4 weeks, oral gavage once daily. How it is done:
(§1) Five-week-old female C57BL/6 mice (Narabio Co., Ltd.) were purchased and fed with only high-fat diet for at least 10 weeks to produce diet induced obesity ([…]) mice. Samples were exactly taken from Preparation Example 1 (glabridin) and the compounds of Examples of the present invention (Compounds 1 to 5, 7, 9, 11, 14 to 16, 21, and 23) according to the administration dose and put into Falcon tubes, 3 ml of a 0.5% methyl cellulose aqueous solution was added thereto and a vortex mixer was used to primarily mix the ingredients in a soft manner, and then a homogenizer (30,000 rpm, Ultra-Turrax® T10 Basic, IKA) was used to treat the sample for 3 minutes while 1.5 ml of a 0.5% methyl cellulose aqueous solution was added thereto. The sample thus prepared was administered through oral gavage using a disposable plastic syringe once daily for 28 days (4 weeks). The body weight was measured twice a week while the DIO mice were bred in this manner. Based on the data thus calculated, the anti-obesity effect (%) was calculated according to the equation defined as follows. Anti-Obesity Effect={(Body weight of control group)−(Body weight of experimental group)}/(Body weight of control group)×100

Assay [2] concerns the target PTP1B (Homo sapiens (Human), UniProt P18031). Put plainly: Experiment of PTP1B inhibition (p-NPP dephosphorylation). The class given is biochemical. As to conditions: 2 mM p-NPP substrate, 30° C., 30 minutes. From the text: With respect to PTP1B, the degrees of inhibition (IC50 The half maximal inhibitory concentration) of glabridin, and compounds of Preparation Example 2 (Compound 1), Example 2 (Compound 3), Example 3 (Compound 4), Example 4 (Compound 5), Example 13 (Compound 14), Example 14 (Compound 15), Example 15 (Compound 16), Example 17 (Compound 18), Example 18 (Compound 19) and Example 20 (Compound 21) were compared to each other. For this purpose, the degree of inhibition activity for PTP1B was investigated by using 2 mM p-nitrophenyl phosphate (p-NPP) as a substrate to measure the dephosphorylation degree. First, PTP1B diluted with distilled water was reacted with 2 mM p-nitrophenyl phosphate {p-NPP, 0.1 M NaCl, 1 mM EDTA, 50 mM citrate pH 6.0, and 1 mM dithiothreitol (DTT)} and Compound 1 at various concentrations at 30° C. for 30 minutes, and then the reaction was terminated with a 1 N-sodium hydroxide (NaOH) solution. The absorbance of the samples thus prepared was measured to confirm the inhibition degree (IC50: The half maximal inhibitory concentration) for PTP1B activity according to the concentration of Compound 1. Even for glabridin, Compound 3, Compound 4, Compound 5, Compound 14, Compound 15, Compound 16, Compound 18, Compound 19, and Compound 21, the same measurement was performed.

Assay [3] concerns DIO mice. The assay can be described thus: Organ weights and blood biochemistry of DIO mice after 28 days of administration. The format is in vivo, C57BL/6 mice. How it is done: as §1
After the experiment was performed for 28 days (4 weeks) as described above, blood was simultaneously taken while the experimental animal was finally sacrificed, and each of the organs (liver, heart, kidney, pancreas, fat tissues and the like) was removed to measure the weight and observe peculiar matters.
In Table 3, { }, ( ) and the like were used in order to differentiate experiments which had been performed at different periods. Experiments without the parenthesis were those simultaneously performed under the same conditions.

The test system of assay [4] is BV2 microglia cells. The assay can be described thus: BV2 cell NO assay (LPS-induced NO production, Griess reagent). The class given is cell-based. Conditions: Mus musculus, BV-2, LPS 1 μg/ml, 24 hours. How it is done: (§2) After the pretreatment, 0.5 mg/ml of the MTT (Sigma, M2128) reagent was further added thereto. After the cells were cultured in a 5% CO2 incubator, the supernatant was discarded, 150 μl of DMSO was added and was shaken for 30 minutes, and an ELISA micro plate reader (Bio Rad Laboratories Inc., California, USA, Model 680) was used to measure the absorbance at a wavelength of 540 nm. All the experimental values were calculated as an average value of three repeated experimental values of the cell protection rate for the control group, and an experiment of suppressing the NO production for each compound was carried out at a concentration in which no cytotoxicity was shown.
After the reaction, an ELISA micro plate reader (Bio Rad Laboratories Inc., California, USA, Model 680) was used to measure the absorbance at a wavelength of 540 nm. The suppression rate was calculated as a difference in amount of NO produced between the control group and the experimental group, and as shown in the following Table 6 and FIG. 6, Compounds 4, 5, 15, 16, 18, and the like of the present invention were excellent in the effect of suppressing the production of NO, and the effect is also about 5 times to about 9 times better than that of glabridin.

Assay [5] deals with RAW264.7 macrophages. Put plainly: RAW264.7 macrophage NO assay (LPS-induced NO production, Griess reagent). The class given is cell-based. How it is done:
as §2, with “pretreatment,” for “pretreatment, 0.5 mg/ml of”, “reagent at a concentration of 0.5 mg/ml” for “reagent”, “incubator for 4 hours,” for “incubator,”
After the reaction, an ELISA micro plate reader (Bio Rad Laboratories Inc., California, USA, Model 680) was used to measure the absorbance at a wavelength of 540 nm. The suppression rate was calculated as a difference in amount of NO produced between the control group and the experimental group, and as shown in the following Table 7, Compounds 4, 5, 15, 16, 18, and the like of the present invention were excellent in the effect of suppressing the production of NO.
(Griess reagent forms a coloured azo dye with nitrite.)

The mark [6] stands for this setting: 150 mg/kg, experiment without parenthesis.

Chain of PTP1B (P18031 whole entry, species assumed): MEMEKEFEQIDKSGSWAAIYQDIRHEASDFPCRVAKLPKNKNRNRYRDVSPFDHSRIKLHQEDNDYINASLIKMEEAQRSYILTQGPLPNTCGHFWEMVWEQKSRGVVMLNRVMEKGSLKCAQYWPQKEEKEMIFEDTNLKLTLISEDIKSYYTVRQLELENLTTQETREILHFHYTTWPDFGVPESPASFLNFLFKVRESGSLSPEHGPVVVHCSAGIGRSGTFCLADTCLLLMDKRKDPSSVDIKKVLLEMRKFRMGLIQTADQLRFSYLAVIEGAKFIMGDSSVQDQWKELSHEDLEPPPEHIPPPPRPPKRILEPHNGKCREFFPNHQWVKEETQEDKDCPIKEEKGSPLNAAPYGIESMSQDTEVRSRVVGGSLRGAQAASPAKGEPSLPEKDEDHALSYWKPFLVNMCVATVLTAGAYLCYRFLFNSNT

By inhibition in vivo is commonly meant the percentage by which the read-out fell short of the control. The low end stands for little suppression, the high end for strong suppression. As to `COCCc1ccc(C2COc3c(ccc4c3CCC(C)(C)O4)C2)c(O)c1` (stereo not shown) [Compound 9, 3-(2-hydroxy-4-(2-methoxyethyl)phenyl)-8,8-dimethyl-2,3,4,8,9,10-hexahydropyrano [2,3-f] chromene], the inhibition in vivo at 150 mg/kg in assay [1] came out at 10%.

What is called IC50 is the point on the concentration scale where inhibition reaches its midpoint. Regarding `CC1(C)CCc2c(ccc3c2OC[C@@H](c2ccc(O)cc2O)C3)O1` [Compound 1, 3″,4″-dihydroglabridin], the IC50 in assay [2] worked out at 46 µM. 150 mg/kg produced 8% inhibition in vivo in assay [1]. In assay [3] (setting [6]), the “ALT (U/L)” value stood at 34 U/L, the “AST (U/L)” value is 93 U/L, the BMI was determined as 3.8 and the “FFA (μEq/L)” value came out at 1400 μEq/L. In addition, in assay [3] (setting [6]), the “Fat (g), weight of fat removed around the epididymis and the kidney” value (“Fat (g), weight” below) is 2.07 g; the “LDL” value was found to be 11 mg/dL; the “Liver (g), weight of liver” value came to 1.24 g.

Consider `CCCCOc1ccc(C2COc3c(ccc4c3CCC(C)(C)O4)C2)c(O)c1` (stereo not shown) [Compound 18, 3-(2-hydroxy-4-butoxyphenyl)-8,8-dimethyl-2,3,4,8,9,10-hexahydropyrano [2,3-f] chromene], for which the concentration for half-maximal inhibition (IC50) in assay [2] came to 3.4 µM; in assay [4], 2800 nM; in assay [5] (Mus musculus, RAW264.7, NO production, LPS 1 μg/ml, 24 hours) it was 5.6 µM. Besides, the “effect of suppressing the production of NO” value in assay [5] (RAW264.7 macrophages, in words) is given as “excellent”.

In assay [1], `CCCCc1ccc(C2COc3c(ccc4c3CCC(C)(C)O4)C2)c(O)c1` (stereo not shown) [Compound 7, 3-(2-hydroxy-4-butylphenyl)-8,8-dimethyl-2,3,4,8,9,10-hexahydropyrano [2,3-f] chromene] yielded an inhibition in vivo at 150 mg/kg of 14%.

As to `COCOc1ccc(C2COc3c(ccc4c3CCC(C)(C)O4)C2)c(O)c1` (stereo not shown) [Compound 21, 3-(2-hydroxy-4-(methoxymethoxy)phenyl)-8,8-dimethyl-2,3,4,8,9,10-hexahydropyrano [2,3-f] chromene], the midpoint of inhibition in assay [2], the IC50, lay at 2.3 µM. Further, in assay [1], the inhibition in vivo at 150 mg/kg worked out at 16%. In addition, in assay [3] (setting [6]), the “ALT (U/L)” value stood at 46 U/L, the “AST (U/L)” value came to 104 U/L, the BMI is on record as 3.6 and the “FFA (μEq/L)” value came to 1520 μEq/L. Also, in assay [3] (setting [6]), the “Fat (g), weight” value stood at 2.13 g; the “LDL” value is reported as 12 mg/dL; the “Liver (g), weight of liver” value amounted to 1.11 g.

As for `CCCCCOc1ccc(C2COc3c(ccc4c3CCC(C)(C)O4)C2)c(O)c1` (stereo not shown) [Compound 19, 3-(2-hydroxy-4-n-pentoxyphenyl)-8,8-dimethyl-2,3,4,8,9,10-hexahydropyrano [2,3-f] chromene], the IC50 in assay [2] amounted to 1.2 µM.

`Cc1cc(O)c(C2COc3c(ccc4c3CCC(C)(C)O4)C2)cc1C` (stereo not shown) [Compound 11, 3-(2-hydroxy-4,5-dimethylphenyl)-8,8-dimethyl-2,3,4,8,9,10-hexahydropyrano [2,3-f] chromene] came in with an inhibition in vivo at 150 mg/kg in assay [1] of 8%.

Consider `CCC1(CC)CCc2c(ccc3c2OCC(c2ccc(OC)cc2O)C3)O1` (stereo not shown) [Compound 23, 3-(2-hydroxy-4-methoxyphenyl)-8,8-diethyl-2,3,4,8,9,10-hexahydropyrano [2,3-f] chromene], for which the inhibition in vivo at 200 mg/kg in assay [1] turned out to be 11%.

On to `COc1ccc(C2COc3c(ccc4c3CCC(C)(C)O4)C2)c(O)c1` (stereo not shown) [Compound 14, 3-(2-hydroxy-4-methoxyphenyl)-8,8-dimethyl-2,3,4,8,9,10-hexahydropyrano [2,3-f] chromene], for which, in assay [2], the IC50 is 6.5 µM. Moreover, at 150 mg/kg the inhibition in vivo in assay [1] was 12%. In addition, in assay [3] (setting [6]), the “ALT (U/L)” value is listed as 51 U/L, the “AST (U/L)” value was 131 U/L, the BMI is reported as 3.9 and the “FFA (μEq/L)” value is 2160 μEq/L. In addition, in assay [3] (setting [6]), the “Fat (g), weight” value turned out to be 2.23 g; the “LDL” value is listed as 13 mg/dL; the “Liver (g), weight of liver” value was 1.19 g.

On to `CC1(C)CCc2c(ccc3c2OCC(c2ccccc2O)C3)O1` (stereo not shown) [Compound 2, 3-(2-hydroxyphenyl)-8,8-dimethyl-2,3,4,8,9,10-hexahydropyrano [2,3-f] chromene], for which, in assay [1], the inhibition in vivo at 200 mg/kg was determined as 8%.

In assay [2], `Cc1ccc(C2COc3c(ccc4c3CCC(C)(C)O4)C2)c(O)c1` (stereo not shown) [Compound 3, 3-(2-hydroxy-4-methylphenyl)-8,8-dimethyl-2,3,4,8,9,10-hexahydropyrano [2,3-f] chromene] returned an IC50 of 7 µM. In assay [1], this molecule gave an inhibition in vivo at 200 mg/kg of 19%. In assay [3] (200 mg/kg, { } experiment), the “ALT (U/L)” value is on record as “{73} U/L”, the “AST (U/L)” value is “{152} U/L”, the BMI entry was “{3.5}” and the “FFA (μEq/L)” value is “{2390} μEq/L”. In assay [3] (200 mg/kg, { } experiment), the “Fat (g), weight” value is given as “{1.62} g”; the “LDL (mg/dL)” value is “{22} mg/dL”; the “Liver (g), weight of liver” value was “{1.53} g”.

The record behind these values is patent US9783551B2, “Pyranochromenyl phenol derivative, and pharmaceutical composition for treating metabolic syndrome or inflammatory disease” (GLACEUM, INC., priority 2013, dated 2017).
